Measurements published in patent publication US11197903B2, “Composition containing a bean extract for improving blood circulation and vascular health and method for improving blood circulation and vascular health” (AMOREPACIFIC CORPORATION, priority 2009, dated 2021).

Legend:
[1] = test system: rats fed high-cholesterol diet; test: Serum and liver lipid levels in high-cholesterol diet animal model; type: in vivo, rat; details: 200 mg/kg orally, 4 weeks
Protocol: 8-week-old female rats weighing 250-300 g were kept in polycarbonate cages, 8 heads per cage, maintained at 22±2° C. and 55±15% relative humidity with 12/12-hr light/dark cycles. Normal diet or high-cholesterol diet was provided and water was given freely. Fenofibric acid (200 mg/kg) used for treatment of hyperlipidemia was suspended in 1% methyl cellulose (MC) and orally administered as a positive control. The seoritae extract (200 mg/kg) was orally administered once a day for 4 weeks. […] After the centrifugation, total cholesterol, LDL-cholesterol, HDL-cholesterol and triglyceride levels in the obtained serum were evaluated. The analysis was performed using an automated hematology analyzer and the Roche diagnostic kit. The result is shown in Table 17 (serum lipids) and Table 18 (liver lipids).

[2] = in vivo
Protocol: Bleeding time was compared for the cases where 20% ethanol seoritae extract, aspirin or clopidogrel was treated.

Structure (SMILES)	Total cholesterol ([1]; liver)	Triglyceride ([1]; liver)	HDL-cholesterol ([1]; serum)	LDL-cholesterol ([1]; serum)	Total cholesterol ([1]; serum)	bleeding time (FIG. 18) [2]
CC(C)(Oc1ccc(C(=O)c2ccc(Cl)cc2)cc1)C(=O)O [Positive control, Fenofibric acid]	15.43 ± 0.52 µg/mg	185.39 ± 23.84 µg/mg	87.89 ± 6.84 mg/dL	75.34 ± 2.80 mg/dL	112.42 ± 13.33 mg/dL	–
CC(=O)Oc1ccccc1C(=O)O [aspirin]	–	–	–	–	–	significant increase of bleeding time
COC(=O)[C@H](c1ccccc1Cl)N1CCc2sccc2C1 [clopidogrel]	–	–	–	–	–	significant increase of bleeding time
